Holding throughout (test): biochemical
Holding throughout (format): biochemical

Assay [1] concerns the target 363 human kinases (including Aurora A/B/C) (Homo sapiens, UniProt Q15349). The note with it: RSK3; for remaining activity at 0.1 µM: 100 nM; for remaining activity at 0.1 µM / remaining activity at 0.5 µM: read-out: % Enzyme Activity (relative to DMSO controls).
Source text: (§1) However, the Aurora A/B selectivity ratios derived from our in vitro and in vivo data can be compared to prioritize inhibitors.
Assay [2] deals with 363 human kinases (including Aurora A/B/C) (Homo sapiens, UniProt O00506). As to conditions: STK25/YSK1; for remaining activity at 0.1 µM: 100 nM; for remaining activity at 0.1 µM / remaining activity at 0.5 µM: read-out: % Enzyme Activity (relative to DMSO controls).
Source text: as §1
For assay [3], the target named is 363 human kinases (including Aurora A/B/C) (Homo sapiens, UniProt Q06187). As to conditions: BTK, [ATP] 50 µM; for remaining activity at 0.1 µM: 100 nM; for remaining activity at 0.1 µM / remaining activity at 0.5 µM: read-out: % Enzyme Activity (relative to DMSO controls).
Source text: as §1
Assay [4] concerns the target T1, 363 human kinases (including Aurora A/B/C) (Homo sapiens, UniProt O60285).
T1 sequence (O60285 1-661): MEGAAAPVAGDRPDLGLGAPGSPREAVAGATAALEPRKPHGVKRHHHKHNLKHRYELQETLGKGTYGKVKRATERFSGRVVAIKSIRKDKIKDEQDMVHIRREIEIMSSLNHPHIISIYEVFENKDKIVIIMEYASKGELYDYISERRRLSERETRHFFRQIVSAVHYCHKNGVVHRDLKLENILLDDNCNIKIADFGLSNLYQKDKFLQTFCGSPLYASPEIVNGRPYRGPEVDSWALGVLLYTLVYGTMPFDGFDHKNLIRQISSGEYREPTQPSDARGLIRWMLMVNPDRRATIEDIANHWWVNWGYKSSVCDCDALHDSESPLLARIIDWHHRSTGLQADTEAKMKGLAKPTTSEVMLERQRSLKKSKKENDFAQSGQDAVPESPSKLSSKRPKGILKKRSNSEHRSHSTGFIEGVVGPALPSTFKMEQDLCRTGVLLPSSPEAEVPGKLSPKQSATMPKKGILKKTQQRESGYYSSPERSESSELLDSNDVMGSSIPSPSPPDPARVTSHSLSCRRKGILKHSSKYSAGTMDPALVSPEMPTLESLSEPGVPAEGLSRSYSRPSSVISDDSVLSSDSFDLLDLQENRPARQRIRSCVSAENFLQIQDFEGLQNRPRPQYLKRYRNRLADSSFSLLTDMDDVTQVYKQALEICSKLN
As to conditions: ARK5/NUAK1, [ATP] 30 µM; for remaining activity at 0.1 µM: 100 nM; for remaining activity at 0.1 µM / remaining activity at 0.5 µM: read-out: % Enzyme Activity (relative to DMSO controls).
Source text: as §1

Assay [5] deals with 363 human kinases (including Aurora A/B/C) (Homo sapiens, UniProt Q9Y4K4). The note with it: KHS/MAP4K5; for remaining activity at 0.1 µM: 100 nM; for remaining activity at 0.1 µM / remaining activity at 0.5 µM: read-out: % Enzyme Activity (relative to DMSO controls).
Source text: as §1
Assay [6] deals with T2, 363 human kinases (including Aurora A/B/C) (Homo sapiens, UniProt P42680).
T2 sequence (P42680 1-631): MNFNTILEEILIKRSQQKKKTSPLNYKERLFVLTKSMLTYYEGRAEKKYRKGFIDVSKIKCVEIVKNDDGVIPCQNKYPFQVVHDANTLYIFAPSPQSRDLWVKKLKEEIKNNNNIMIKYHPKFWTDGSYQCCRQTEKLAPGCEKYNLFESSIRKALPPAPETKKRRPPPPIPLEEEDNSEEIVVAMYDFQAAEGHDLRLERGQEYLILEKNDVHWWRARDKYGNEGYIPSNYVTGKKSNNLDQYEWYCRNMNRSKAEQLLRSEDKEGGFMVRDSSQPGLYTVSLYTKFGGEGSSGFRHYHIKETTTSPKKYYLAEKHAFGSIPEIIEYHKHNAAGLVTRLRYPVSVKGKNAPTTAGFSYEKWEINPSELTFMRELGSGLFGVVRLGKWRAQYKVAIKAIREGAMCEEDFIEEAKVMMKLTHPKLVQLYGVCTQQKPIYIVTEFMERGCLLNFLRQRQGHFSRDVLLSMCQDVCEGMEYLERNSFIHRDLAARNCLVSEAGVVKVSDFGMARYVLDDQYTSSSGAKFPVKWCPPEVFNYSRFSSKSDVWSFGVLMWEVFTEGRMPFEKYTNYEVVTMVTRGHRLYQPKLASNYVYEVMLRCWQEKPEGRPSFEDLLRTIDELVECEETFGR
The note with it: TEC; for remaining activity at 0.1 µM: 100 nM; for remaining activity at 0.1 µM / remaining activity at 0.5 µM: read-out: % Enzyme Activity (relative to DMSO controls).
Source text: as §1

In assay [7] the target is T3, 363 human kinases (including Aurora A/B/C) (Homo sapiens, UniProt O75385).
T3 sequence (O75385 1-1050): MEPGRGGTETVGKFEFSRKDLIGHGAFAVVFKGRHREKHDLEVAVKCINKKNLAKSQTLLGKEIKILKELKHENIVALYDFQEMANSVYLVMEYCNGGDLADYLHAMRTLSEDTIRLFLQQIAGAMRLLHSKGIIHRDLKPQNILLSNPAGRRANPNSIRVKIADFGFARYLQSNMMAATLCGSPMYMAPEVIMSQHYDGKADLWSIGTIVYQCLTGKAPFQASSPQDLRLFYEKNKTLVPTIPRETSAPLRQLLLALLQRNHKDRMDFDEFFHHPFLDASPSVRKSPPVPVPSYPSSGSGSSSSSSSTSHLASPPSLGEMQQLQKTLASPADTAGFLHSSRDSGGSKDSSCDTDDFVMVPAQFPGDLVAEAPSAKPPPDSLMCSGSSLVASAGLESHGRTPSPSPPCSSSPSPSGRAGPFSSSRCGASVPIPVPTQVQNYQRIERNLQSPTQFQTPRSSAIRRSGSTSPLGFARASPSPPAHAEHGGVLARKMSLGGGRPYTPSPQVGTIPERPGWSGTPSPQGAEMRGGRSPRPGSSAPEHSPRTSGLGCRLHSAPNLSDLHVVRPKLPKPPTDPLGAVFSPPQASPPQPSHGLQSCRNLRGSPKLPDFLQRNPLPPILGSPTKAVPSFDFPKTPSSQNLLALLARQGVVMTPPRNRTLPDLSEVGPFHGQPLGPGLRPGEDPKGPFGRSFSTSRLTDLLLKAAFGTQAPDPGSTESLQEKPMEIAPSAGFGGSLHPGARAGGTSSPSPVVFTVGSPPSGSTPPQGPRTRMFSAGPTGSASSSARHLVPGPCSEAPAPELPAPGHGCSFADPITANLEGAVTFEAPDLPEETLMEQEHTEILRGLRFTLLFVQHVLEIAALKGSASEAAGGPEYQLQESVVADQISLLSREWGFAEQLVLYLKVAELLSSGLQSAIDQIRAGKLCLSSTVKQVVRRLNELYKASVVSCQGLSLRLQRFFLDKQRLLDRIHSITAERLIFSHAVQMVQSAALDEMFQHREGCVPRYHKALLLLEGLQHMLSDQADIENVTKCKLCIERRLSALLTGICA
The note with it: ULK1; for remaining activity at 0.1 µM: 100 nM; for remaining activity at 0.1 µM / remaining activity at 0.5 µM: read-out: % Enzyme Activity (relative to DMSO controls).
Source text: as §1

Chain of 363 human kinases (including Aurora A/B/C) (Homo sapiens, UniProt Q06187) (Q06187 whole entry): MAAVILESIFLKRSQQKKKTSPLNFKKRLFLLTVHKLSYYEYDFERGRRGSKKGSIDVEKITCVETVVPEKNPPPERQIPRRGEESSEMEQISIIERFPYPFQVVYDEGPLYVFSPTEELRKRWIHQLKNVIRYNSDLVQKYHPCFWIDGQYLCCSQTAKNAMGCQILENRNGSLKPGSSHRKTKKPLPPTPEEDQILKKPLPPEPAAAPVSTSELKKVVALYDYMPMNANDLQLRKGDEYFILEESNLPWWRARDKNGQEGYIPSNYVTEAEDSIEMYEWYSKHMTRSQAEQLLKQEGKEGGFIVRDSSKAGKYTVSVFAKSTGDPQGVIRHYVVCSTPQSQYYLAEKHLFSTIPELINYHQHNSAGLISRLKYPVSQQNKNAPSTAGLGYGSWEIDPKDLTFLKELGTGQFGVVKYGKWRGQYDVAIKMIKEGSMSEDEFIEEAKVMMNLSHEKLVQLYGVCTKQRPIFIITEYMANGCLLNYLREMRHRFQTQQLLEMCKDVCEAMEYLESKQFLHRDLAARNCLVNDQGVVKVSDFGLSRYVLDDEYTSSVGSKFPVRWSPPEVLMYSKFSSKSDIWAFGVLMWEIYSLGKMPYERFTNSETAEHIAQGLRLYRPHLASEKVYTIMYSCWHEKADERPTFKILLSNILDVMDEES
Chain of 363 human kinases (including Aurora A/B/C) (Homo sapiens, UniProt O00506) (O00506 whole entry): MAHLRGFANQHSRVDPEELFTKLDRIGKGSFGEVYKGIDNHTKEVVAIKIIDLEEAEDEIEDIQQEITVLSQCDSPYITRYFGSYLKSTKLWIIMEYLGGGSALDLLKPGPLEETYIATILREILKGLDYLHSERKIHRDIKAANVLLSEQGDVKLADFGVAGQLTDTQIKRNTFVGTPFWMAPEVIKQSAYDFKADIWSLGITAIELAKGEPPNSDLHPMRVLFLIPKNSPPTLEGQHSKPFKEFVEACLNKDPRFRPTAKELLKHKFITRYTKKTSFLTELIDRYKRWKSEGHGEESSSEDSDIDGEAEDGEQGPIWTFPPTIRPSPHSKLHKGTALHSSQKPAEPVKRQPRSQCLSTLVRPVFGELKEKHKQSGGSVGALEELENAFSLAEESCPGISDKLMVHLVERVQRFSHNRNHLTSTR
Chain of 363 human kinases (including Aurora A/B/C) (Homo sapiens, UniProt Q15349) (Q15349 whole entry): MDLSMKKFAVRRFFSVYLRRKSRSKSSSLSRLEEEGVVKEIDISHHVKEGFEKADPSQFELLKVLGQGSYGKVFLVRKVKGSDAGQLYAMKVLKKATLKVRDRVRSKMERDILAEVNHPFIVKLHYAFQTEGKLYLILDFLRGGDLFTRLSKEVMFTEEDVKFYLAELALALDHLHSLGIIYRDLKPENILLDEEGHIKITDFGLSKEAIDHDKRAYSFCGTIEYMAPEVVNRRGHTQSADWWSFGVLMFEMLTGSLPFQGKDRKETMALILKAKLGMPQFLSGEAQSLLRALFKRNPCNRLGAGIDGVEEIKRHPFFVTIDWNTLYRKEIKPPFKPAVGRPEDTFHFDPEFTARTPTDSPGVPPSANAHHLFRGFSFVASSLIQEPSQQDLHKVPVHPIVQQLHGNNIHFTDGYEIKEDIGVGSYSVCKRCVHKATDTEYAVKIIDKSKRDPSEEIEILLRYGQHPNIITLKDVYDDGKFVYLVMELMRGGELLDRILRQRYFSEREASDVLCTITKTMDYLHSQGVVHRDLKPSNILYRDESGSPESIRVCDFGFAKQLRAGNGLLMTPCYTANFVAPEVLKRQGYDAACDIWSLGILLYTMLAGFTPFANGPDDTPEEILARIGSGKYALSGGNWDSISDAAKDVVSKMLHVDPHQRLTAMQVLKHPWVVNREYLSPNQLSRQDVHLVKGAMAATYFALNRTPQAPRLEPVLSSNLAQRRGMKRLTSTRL
Chain of 363 human kinases (including Aurora A/B/C) (Homo sapiens, UniProt Q9Y4K4) (Q9Y4K4 whole entry): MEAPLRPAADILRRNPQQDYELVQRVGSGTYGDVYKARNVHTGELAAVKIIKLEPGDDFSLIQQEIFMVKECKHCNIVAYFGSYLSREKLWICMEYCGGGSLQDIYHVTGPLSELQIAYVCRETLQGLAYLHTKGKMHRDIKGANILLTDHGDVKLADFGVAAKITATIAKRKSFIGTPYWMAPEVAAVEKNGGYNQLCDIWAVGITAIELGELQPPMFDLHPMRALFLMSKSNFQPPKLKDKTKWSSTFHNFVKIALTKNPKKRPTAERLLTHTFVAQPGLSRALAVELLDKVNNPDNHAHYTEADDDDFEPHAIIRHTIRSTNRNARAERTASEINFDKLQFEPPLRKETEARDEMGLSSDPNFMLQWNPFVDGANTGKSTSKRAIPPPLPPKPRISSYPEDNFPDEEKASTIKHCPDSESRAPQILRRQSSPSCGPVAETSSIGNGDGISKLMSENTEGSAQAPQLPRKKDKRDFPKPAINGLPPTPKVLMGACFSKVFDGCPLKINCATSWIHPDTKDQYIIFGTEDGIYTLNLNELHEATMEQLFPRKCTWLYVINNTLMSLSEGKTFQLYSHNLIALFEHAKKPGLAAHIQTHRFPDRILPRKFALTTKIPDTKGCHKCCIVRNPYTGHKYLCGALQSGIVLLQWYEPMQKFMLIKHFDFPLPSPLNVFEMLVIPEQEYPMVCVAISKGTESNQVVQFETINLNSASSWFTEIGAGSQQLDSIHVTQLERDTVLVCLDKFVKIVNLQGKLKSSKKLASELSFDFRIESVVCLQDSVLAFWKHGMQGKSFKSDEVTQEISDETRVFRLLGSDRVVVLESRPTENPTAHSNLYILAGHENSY

`CCn1cc(-c2ccnc3[nH]c(-c4cccc(CN(C)C)c4)cc23)c(-c2ccc(NC(=O)N(C)C)cc2)n1` [GSK1070916]: the remaining activity at 0.1 µM was determined as 95.2% in assay [1]; 98.9% in assay [2]; 102% in assay [3]; 92.5% in assay [4]; 84% in assay [5]; 100% in assay [6]. Besides, the remaining activity at 0.1 µM in assay [7] worked out at 111%.
Turning to `O=C(O)[C@]1(Cc2cccc(Nc3nccs3)n2)CC[C@@H](Oc2cccc(Cl)c2F)CC1` [MK-5108], the remaining activity at 0.1 µM was 101% in assay [1]; 104% in assay [2]; 69.8% in assay [3]; 79.6% in assay [4]; 96.2% in assay [5]; 68.8% in assay [6]. In assay [7], the remaining activity at 0.1 µM was found to be 107%. For the same compound, the remaining activity at 0.5 µM in assay [1] (500 nM) was found to be 89.7%; in assay [2] (500 nM) it was 113%; in assay [3] (500 nM) it was 30.2%; in assay [4] (500 nM) it was 42.7%; in assay [5] (500 nM), 92.4%; in assay [6] (500 nM), 40.6%. In addition, the remaining activity at 0.5 µM in assay [7] (500 nM) was determined as 104%.
Regarding `O=C(c1cccc(Cl)c1F)N1CCN(Cc2cccc(Nc3nccs3)n2)CC1` [MK-8745], the “% Enzyme Activity (relative to DMSO controls)” value in assay [1] (500 nM) is 96.48%; in assay [2] (500 nM) it was 99.16%; in assay [3] (500 nM) it was 94.23%; in assay [4] (500 nM), 73.30%; in assay [5] (500 nM), 93.71%; in assay [6] (500 nM), 100.04%. The “% Enzyme Activity (relative to DMSO controls)” value in assay [7] (500 nM) was 92.67%. The remaining activity at 0.5 µM stood at 99.9% in assay [1] (500 nM); 100% in assay [2] (500 nM); 94.5% in assay [3] (500 nM); 76.7% in assay [4] (500 nM); 94% in assay [5] (500 nM); 102% in assay [6] (500 nM). For the same compound, the remaining activity at 0.5 µM in assay [7] (500 nM) was determined as 93.8%.
